Test results reported in EP0889878B1 (Merck Frosst Canada & Co., priority 1996, dated 1997).

What was measured:
[1] = target: T1, COX-1 (Homo sapiens, UniProt P23219); assay: Whole cell cyclooxygenase assay in U-937 cells (COX-1, inhibition of PGE2 production); format: cell-based
T1 construct: human U-937 cells (which specifically express COX-1); endogenous in cells; host or cells: human U-937 cells
Description: Compounds are tested as inhibitors of cyclooxygenase activity in whole cell cyclooxygenase assays. Both of these assays measure prostaglandin E2 synthesis in response to arachidonic acid, using a radioimmunoassay. Cells used for these assays are human osteosarcoma 143 cells (which specifically express COX-2) and human U-937 cells (which specifically express COX-1). In these assays, 100% activity is defined as the difference between prostaglandin E2 synthesis in the absence and presence of arachidonate.
For cyclooxygenase assays, osteosarcoma cells are cultured in 1 mL of media in 24-well multidishes (Nunclon) until confluent (1-2 x 10^5 cells/well). U-937 cells are grown in spinner flasks and resuspended to a final density of 1.5 x 10^6 cells/mL in 24-well multidishes (Nunclon). Following washing and resuspension of osteosarcoma and U-937 cells in 1 mL of HBSS, 1 µL of a DMSO solution of test compound or DMSO vehicle is added, and samples gently mixed. All assays are performed in triplicate. Samples are then incubated for 5 or 15 minutes at 37C, prior to the addition of arachidonic acid. Arachidonic acid (peroxide-free, Cayman Chemical) is prepared as a 10 mM stock solution in ethanol and further diluted 10-fold in HBSS. An aliquot of 10 µL of this diluted solution is added to the cells to give a final arachidonic acid concentration of 10 µM. Control samples are incubated with ethanol vehicle instead of arachidonic acid. Samples are again gently mixed and incubated for a further 10 min. at 37C. For osteosarcoma cells, reactions are then stopped by the addition of 100 µL of 1N HCl, with mixing and by the rapid removal of the solution from cell monolayers. For U-937 cells, reactions are stopped by the addition of 100 µL of IN HCl, with mixing. Samples are then neutralized by the addition of 100 µL of 1N NaOH and PGE2 levels measured by radioimmunoassay.
In the assay, inhibition is determined by measuring the amount of prostaglandin E2 (PGE2) synthesized in the presence of arachidonic acid, COX-1 or COX-2 and a putative inhibitor.
The results for inhibition of PGE2 production may be seen in Table 7.

[2] = target: T2, COX-2 (Homo sapiens, UniProt P35354); assay: Whole cell assay for COX-2 using CHO transfected cell lines (inhibition of PGE2 production); format: cell-based
T2 construct: expressed in transfected cells; host or cells: CHO cells stably transfected with pCDNAIII (CHO[hCOX-2])
T2 sequence (P35354 18-604): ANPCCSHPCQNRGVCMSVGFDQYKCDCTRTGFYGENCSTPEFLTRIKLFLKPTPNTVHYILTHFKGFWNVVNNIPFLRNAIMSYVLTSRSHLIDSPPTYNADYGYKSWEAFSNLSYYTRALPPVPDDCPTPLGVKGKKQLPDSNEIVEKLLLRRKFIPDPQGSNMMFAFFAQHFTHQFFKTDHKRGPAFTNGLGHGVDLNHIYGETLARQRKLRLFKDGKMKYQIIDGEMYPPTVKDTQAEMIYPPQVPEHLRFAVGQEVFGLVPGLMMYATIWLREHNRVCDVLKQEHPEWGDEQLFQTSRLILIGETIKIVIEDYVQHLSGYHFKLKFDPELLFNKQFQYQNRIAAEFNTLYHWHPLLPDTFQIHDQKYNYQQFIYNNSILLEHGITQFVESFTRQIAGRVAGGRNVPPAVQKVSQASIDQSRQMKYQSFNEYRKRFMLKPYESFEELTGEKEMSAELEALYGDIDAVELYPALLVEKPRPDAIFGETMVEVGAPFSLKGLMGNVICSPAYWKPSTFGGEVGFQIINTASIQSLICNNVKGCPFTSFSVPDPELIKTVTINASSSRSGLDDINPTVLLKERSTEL
Description: Chinese hamster ovary (CHO) cell lines which have been stably transfected with an eukaryotic expression vector pCDNAIII containing either the human COX-1 or COX-2 cDNA's are used for the assay. These cell lines are referred to as CHO [hCOX-1] and CHO [hCOX-2], respectively. For cyclooxygenase assays, CHO[hCOX-1] cells from suspension cultures and CHO[hCOX-2] cells prepared by trypsinization of adherent cultures are harvested by centrifugation (300 x g, 10 min) and washed once in HBSS containing 15 mM HEPES, pH 7.4, and resuspended in HBSS, 15 mM HEPES, pH 7.4, at a cell concentration of 1.5 x 10^6 cells/ml. […] Cells are then challenged in the presence or absence of drug with the AA/HBSS solution to yield a final concentration of 0.5 µM AA in the CHO[hCOX-1] assay and a final concentration of 10 µM AA in the CHO[hCOX-2] assay. […] Cyclooxygenase activity in the absence of test compounds is determined as the difference in PGE2 levels of cells challenged with arachidonic acid versus the PGE2 levels in cells mock-challenged with ethanol vehicle. Inhibition of PGE2 synthesis by test compounds is calculated as a percentage of the activity in the presence of drug versus the activity in the positive control samples.
In the assay, inhibition is determined by measuring the amount of prostaglandin E2 (PGE2) synthesized in the presence of arachidonic acid, COX-1 or COX-2 and a putative inhibitor. […]

T1 sequence (P23219 24-599): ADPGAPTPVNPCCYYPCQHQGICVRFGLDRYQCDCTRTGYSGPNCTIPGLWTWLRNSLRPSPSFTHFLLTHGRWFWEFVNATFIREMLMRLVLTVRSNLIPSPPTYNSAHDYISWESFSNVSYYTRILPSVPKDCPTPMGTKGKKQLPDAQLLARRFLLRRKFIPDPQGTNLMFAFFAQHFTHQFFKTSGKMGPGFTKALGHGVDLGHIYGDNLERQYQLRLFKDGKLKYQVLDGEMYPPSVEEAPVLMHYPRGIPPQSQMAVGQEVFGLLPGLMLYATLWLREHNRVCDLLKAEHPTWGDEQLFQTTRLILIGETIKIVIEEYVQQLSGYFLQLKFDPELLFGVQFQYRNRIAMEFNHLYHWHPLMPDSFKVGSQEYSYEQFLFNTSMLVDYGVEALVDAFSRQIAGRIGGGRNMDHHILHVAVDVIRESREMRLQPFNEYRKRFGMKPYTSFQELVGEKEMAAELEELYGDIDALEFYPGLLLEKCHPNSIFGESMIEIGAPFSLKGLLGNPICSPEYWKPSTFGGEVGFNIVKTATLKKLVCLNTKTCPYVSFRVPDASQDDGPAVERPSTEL

IC50 [1] [nM] | Compound | IC50 [2] [nM]
2000 | CC1(c2ccsc2)C(=O)C(c2ccccc2)=C1c1ccc(S(C)(=O)=O)cc1 (stereo not drawn) [Example 6, 4-Methyl-3-(4-methylsulfonylphenyl)-2-phenyl-4-(3-thienyl)-2-cyclobuten-1-one] | 25
1100 | CC1(C)C(=O)C(c2ccc(S(C)(=O)=O)cc2)=C1c1ccccc1 [Example 30, 4,4-dimethyl-2-(4-methylsulfonylphenyl)-3-phenyl-2-cyclobuten-1-one] | –
1000 | C=C1CC(c2ccc(S(C)(=O)=O)cc2)=C1c1ccccc1 [Example 39, 3-Methylene-1-(4-methylsulfonylphenyl)-2-phenyl-1-cyclobutene] | –

Compound | IC50 [1] [nM] | IC50 [2] [nM]
C/C(CO)=C1\CC(c2ccc(S(C)(=O)=O)cc2)=C1c1ccccc1 [Example 42] | 1500 | 22
